Consider 11 compounds from patent US5457099A, “Carbostyril derivatives and antiallergic agent” (Sawai Pharmaceutical Co., Ltd., priority 1992, dated 1995).

The test system of series [1] is experimental asthma in guinea pigs. The series can be described thus: Inhibition of experimental asthma in guinea pigs. As to conditions: p.o., 1 mg/kg; significance vs. control: * p < 0.05, *** p < 0.001. Type of series: in vivo, Male Hartley guinea pigs. The procedure: Male Hartley guinea pigs (N=10) were passively sensitized by intravenous injection of guinea pig antiovalbumin antiserum (titer for 3 hours PCA: 16000 times) diluted 5 times with physiological saline at a rate of 0.2 ml/animal. After 24 hours, the animal was fixed at dorsal position under urethane anesthetization and connected with a respirator (Harvard Model 683, respiratory volume: 4-6 ml/respiration; respiratory rate: 40/minute) via an incised tracheal cannula. Then 1 mg/kg Gallamine triethiodide was intravenously administered to stop the spontaneous respiration. […] Oxatomide was administered two hours before the challenge by antigen and the test drug (compound III-2) and Ketotifen were administered orally 1 hour before the challenge.

The test system of series [2] is blood TXA2. The series can be described thus: Blood thromboxane (TX)A2 in sensitized rats. The class given is in vivo, Male Wistar rats. As to conditions: 1 mg/kg orally. The procedure: (§1) Male Wistar rats of 7 weeks old and weighing about 280 g were passively sensitized with rat anti-ovalbumin anti-serum prepared according to the method of Tada and Okumura. Similarly, Hartley guinea pigs of 8 weeks old and weighing about 500 g were passively sensitized with guinea pig anti-ovalbumin antiserum prepared by immunizing with a mixed emulsion of ovalbumin and complete Freund's adjuvant (4.5:5.5) .
(§2) After 24 hours, trachea was incised under urethane ansthetiziation and cannulated with a respirator. Ovalbumin was intravenously administered to elicit the reaction while observing airway resistance according to a modified Konzett and Roessler method. Drugs were orally administered before 1 hour of elicitation of reaction. Blood samples were drawn from artery of rats and guinea pigs before the elicitaiton and after 8 minutes and 15 minutes, respectively, of the elicitation. The obtained blood samples were immediately mixed with 10 mM EDTA disodium and 0.4 mM indomethacin and centrifuged to separate blood plasma. TXB2, a metabolite of TXA2, in the blood plasma was partially purified by C18 column and determined by Enzyme Immunoassay Kit.

Series [3] has as its system passive cutaneous anaphylaxis (PCA) reaction in rats. In words: Inhibition of PCA reaction in rats. Conditions: Rattus norvegicus, po. Type of series: in vivo, Wistar rats. The procedure:
(§3) Antiserum was prepared according to the method described in J. Immunol., 106, 1002 (1971). The titer (or highest effective dilution which gave a mean 48 hours PCA response of 5 mm in diameter in a rat) of the antiserum used was 1:200.
Wistar rats were passively sensitized by intracutaneous injection of 0.05 ml antiserum diluted 75 times with physiological saline at two sheared sites of dorsal skin. After 48 hours, 0.5ml/animal of 1% Evans blue-physiological saline containing 2mg ovalbumin was administered into caudal vein to elicit the reaction. After 30 minutes, rats were sacrificed by decapitative bleeding and the dorsal skin was flayed. Dye stuff exuded at the reaction site was extracted according to the method described in Microbiol. Immunol., 22, 89 (1978). Briefly, two circular pieces of sensitized areas and one circular piece of unsensitized area (as the control) were punched at 1.8 cm diameter. The disks were placed in test tubes and treated overnight with 1 ml 1N-KOH at 37° C. Then 9ml 0.6N-H3 PO4 /acetone (5/13) was added and the mixture was thoroughly stirred and centrifuged (3000 rpm, 10 minutes). The supernatant was assayed for absorption at 620 nm. The amount of dye stuff was calculated from the standard curve previously prepared with known amounts of Evance blue. The conditions of sensitization and the amount of antigen were based on Nippon Yakurigaku Zasshi (Japanese Journal of Pharmacology),80, 261 (1982).
Test drugs and Oxatomide as a positive control were administered orally before 1 hour of elicitation through a gastric tube at 1 ml/200g body weight. In the test, groups of 6 to 7 animals and groups of 8 to 9 animals were used for test drugs and control, respectively.

Series [4] in a line: Acute toxicity in mice. The class given is in vivo. As to conditions: mouse, in vivo, suspension in 0.5% carboxymethylcellulose sodium. The procedure: as §3
(§4) Male IcR mice (SPF) (Nippon SLC, weight:24-32 g) of 4 weeks age were fasted for 5 hours before the test. The test compound (III-2) was administered in the form of a suspension in 0.5% carboxymethylcellulose sodium salt (0.2 ml per 10 g). Survived and dead animals were autopsied at day 14 and immediately after the death, respectively.

In series [5] the test system is Male IcR mice. In words: Acute toxicity in mice. The class given is in vivo. As to conditions: p.o. and i.p. Here is the method:
as §3, §4

Series [6] relates to blood TXA2. In words: Blood thromboxane (TX)A2 in sensitized guinea pigs. Type of series: in vivo, Hartley guinea pigs. The procedure:
as §1, §2

Series [7] deals with experimental asthma in rats. The series can be described thus: Inhibition of experimental asthma in rats. As to conditions: Rattus norvegicus, po; for inhibition in vivo at 10 mg/kg: read-out: Inhibition of Experimental Asthma in rat; for inhibition in vivo at 1 mg/kg: other dosage/kg: 1 mg. Type of series: in vivo, Wistar rats. The procedure: as §3
Wistar rats were passively sensitized by injection into caudal vein of 2.0ml/animal antiserum. After 24 hours, anaphylactic airway contraction caused by administration of antigen was measured by a modified Konzett and Roessler method. Briefly, the animal was fixed at dorsal position under urethane (1.5 g/kg, i.p.) anesthetization and connected with a respirator (Harvard Model 683, respiratory volume: 3-5 ml/respiration; respiratory rate: 72/minute) via an incised tracheal cannula. […] Oxatomide was administered two hours before the test, which is the optimal conditions according to Nippon Yakurigaku Zasshi (Japanese Journal of Pharmacology), 80, 261 (1982), and the other test drugs were orally administered at a rate of 0.2 ml/100 g body weight one hour before the test using a gastric tube. At the end of measurement, the trachea was blocked with a Kocher clamp and the measured values were expressed in percent taking the value at blockage as the maximum contraction (100%).

Where [8] appears, read: read-out: Inhibition of PCA in rat.

Each structure is given as a SMILES string. Read-outs that look alike come from different tables or passages of the source.

For `O=c1cc(CCN2CCC(c3c[nH]c4ccccc34)CC2)c2ccccc2[nH]1` [III-2, 4-[2-[4-(1H-indol-3-yl)-1-piperidinyl]ethyl]-2-(1H)-quinolinone], the “Inhibition % of experimental asthema in guinea pig” value (“Inhibition %” for short) in series [1] came to 70.3%. The “Inhibition of blood TXA2 increase” value in series [2] (n = 11) is on record as 68.7%; in series [6] (3 mg/kg orally, n = 5) it was 94.4%. For the same compound, the “Blood TXA2 after reaction” value was 0.45 ng/mL in series [2] (n = 11, ***p < 0.001 vs. control) and 0.28 ng/mL in series [6] (3 mg/kg orally, n = 5, *p < 0.05 vs. control). Also, the inhibition in vivo at 10 mg/kg in series [3] (setting [8]) came to 67.4%; in series [7], 94.8%. This compound also showed an inhibition in vivo at 30 mg/kg in series [3] (other dosage/kg: 30 mg) of 74.6%. Besides, the LD50 (as a rule, the dose expected to kill half of the subjects tested) at 336 h in series [4] (ip, read-out: LD50 for i.p.) was over 1000 mg/kg; in series [4] (po, read-out: LD50 for p.o.), over 3000 mg/kg. Besides, the “Acute toxicity (in words)” value in series [5] is “low toxity”. Also, the “Blood TXA2 before reaction” value in series [6] (3 mg/kg orally 1 hour before elicitation, n = 5) is 0.26 ± 0.05 ng/mL. This compound had an inhibition in vivo at 0.1 mg/kg in series [7] (other dosage/kg: 0.1 mg) of 27.5%. Further, the inhibition in vivo at 0.3 mg/kg in series [7] (other dosage/kg: 0.3 mg) worked out at 84.3%. In series [7], this compound gave an inhibition in vivo at 1 mg/kg of 73%. Besides, in series [7] (other dosage/kg: 3 mg), the inhibition in vivo at 3 mg/kg came out at 95.5%.

For the compound `O=C1CC(CCN2CCC(c3c[nH]c4ccccc34)CC2)c2ccccc2N1` (stereo not drawn) [IV-1, 3,4-dihydro-4-[2-[4-(1H-indol-3-yl)-1-piperidinyl]ethyl]-2(1H)-quinolinone], the inhibition in vivo at 10 mg/kg in series [3] (setting [8]) was 95.9%. Moreover, the inhibition in vivo at 3 mg/kg in series [3] (other dosage/kg: 3 mg, read-out: Inhibition of PCA in rat) was 65.9%. In addition, in series [7], the inhibition in vivo at 10 mg/kg amounted to 80.1% and the inhibition in vivo at 1 mg/kg is 26.4%.

For the compound `CN1CCC(=C2c3ccccc3CC(=O)c3sccc32)CC1` [Ketotifen], the “Inhibition %” value in series [1] was found to be 50.4%.

Regarding `O=c1[nH]c2ccccc2n1CCCN1CCN(C(c2ccccc2)c2ccccc2)CC1` [Oxatomide, 1-[3-{4-(diphenylmethyl)-1-piperazinyl}propyl]-1,3-dihydro-2H-benzimidazol-2-one], the “Inhibition %” value in series [1] is on record as 43.7%.

`O=c1ccc2cc(Cl)ccc2n1CCCN1CCC(c2c[nH]c3ccccc23)CC1` [VII-1, 1-[3-[4-(1H-indol-3-yl)-piperidinyl]propyl]-6-chloro-2-(1H)-quinolinone]: the inhibition in vivo at 10 mg/kg in series [3] (setting [8]) was 12.1%; in series [7], 40.3%.

For `Cc1ccc2c(ccc(=O)n2CCCN2CCC(c3c[nH]c4ccccc34)CC2)c1` [VII-2, 1-[3-[4-(1H-indol-3-yl)-1-piperidinyl]propyl]-6-methyl-2(1H)-quinolinone], the inhibition in vivo at 10 mg/kg is 41.9% in series [3] (setting [8]) and 24.3% in series [7].

For the compound `O=c1ccc2ccccc2n1CCCN1CCC(c2c[nH]c3ccccc23)CC1` [VII-3, 1-[3-[4-(1H-indol-3-yl)-1-piperidinyl]propyl]-2(1H)-quinolinone], the inhibition in vivo at 10 mg/kg in series [3] (setting [8]) came to 27.2%; in series [7], 76.7%.

Turning to `Cc1cc(=O)n(CCCN2CCC(c3c[nH]c4ccccc34)CC2)c2ccccc12` [VII-4, 1-[3-[4-(1H-indol-3-yl)-1-piperidinyl]propyl]-4-methyl-2-(1H)-quinolinone], the inhibition in vivo at 10 mg/kg was 89.2% in series [3] (setting [8]) and 10.8% in series [7].

For `O=c1cc(-c2ccccc2)c2ccccc2n1CCCN1CCC(c2c[nH]c3ccccc23)CC1` [VII-5, 1-[3-[4-(1H-indol-3-yl)-piperidinyl]propyl]-4-phenyl-2(1H)-quinolinone], the inhibition in vivo at 10 mg/kg in series [3] (setting [8]) came to 6.7%; in series [7] it was 50.1%.

Take `O=c1cc(-c2ccc(Cl)cc2)c2ccccc2n1CCCN1CCC(c2c[nH]c3ccccc23)CC1` [VII-6, 4-(4-chlorophenyl)-l-[3-[4-(1H-indol-3-yl)-1-piperidinyl]propyl]-2(1H)-quinolinone]: the inhibition in vivo at 10 mg/kg in series [3] (setting [8]) turned out to be 9.4%; in series [7] it was 19.3%.

For `Cc1ccc(-c2cc(=O)n(CCCN3CCC(c4c[nH]c5ccccc45)CC3)c3ccccc23)cc1` [VII-7, 1-[3-[4-(1H-indol-3-yl)-piperidinyl]propyl]-4-(4-methylphenyl)-2(1H)-quinolinone], the inhibition in vivo at 10 mg/kg was determined as 18.5% in series [3] (setting [8]) and 13.1% in series [7].
